The structures appear in SMILES notation.

In one experiment the target is Melanocortin receptor 3 (Homo sapiens, UniProt P41968). Type of experiment: cell membranes, Membrane. Conditions: hek293. Also: in other assays of this panel Not Active means under 50% inhibition at 10 µM.
Sequence of Melanocortin receptor 3 (P41968 whole entry): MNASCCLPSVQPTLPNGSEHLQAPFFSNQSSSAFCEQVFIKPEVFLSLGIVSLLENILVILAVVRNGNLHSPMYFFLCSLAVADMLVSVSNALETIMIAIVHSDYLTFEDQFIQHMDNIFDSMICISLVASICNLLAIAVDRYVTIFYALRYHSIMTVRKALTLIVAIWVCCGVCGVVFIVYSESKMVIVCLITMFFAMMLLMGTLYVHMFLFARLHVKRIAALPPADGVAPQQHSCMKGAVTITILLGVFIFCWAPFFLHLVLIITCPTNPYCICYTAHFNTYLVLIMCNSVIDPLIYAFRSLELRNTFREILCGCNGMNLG
Consider `C=C1/C(=C\C=C2/CCC[C@]3(C)[C@@H]([C@H](C)CCCC(C)C)CC[C@@H]23)C[C@@H](O)C[C@@H]1O` [ALFACALCIDOL], for which the IC50 result is given as “Not Active”.
The same measure, in the same setting: the same measure for `CCCCCC[C@H]1C(=O)O[C@H](C)[C@H](NC(=O)c2cccc(NC=O)c2O)C(=O)O[C@@H](C)[C@@H]1OC(=O)CC(C)C` [ANTIMYCIN A]: “Not Active”.
Still for that read-out and setting: the result for `C[C@@H]1CC[C@H]2[C@@H](C)C(=O)O[C@@H]3O[C@@]4(C)CC[C@@H]1[C@]32OO4` [ARTEMISININ] reads “Not Active”.
Turning to `CO[C@H]1[C@@H](O)[C@H](N)[C@@H](O[C@H]2O[C@H]([C@H](C)N)CC[C@H]2N)[C@H](O)[C@@H]1N(C)C(=O)CN` [ASTROMICIN], the IC50 result is reported as “Not Active”.

The target in the next experiment is Vasopressin V1a receptor (Homo sapiens, UniProt P37288). Type of experiment: cell membranes, Membrane. The note with it: hek293. Also: in other assays of this panel Not Active means under 50% inhibition at 10 µM.
Sequence of Vasopressin V1a receptor (P37288 whole entry): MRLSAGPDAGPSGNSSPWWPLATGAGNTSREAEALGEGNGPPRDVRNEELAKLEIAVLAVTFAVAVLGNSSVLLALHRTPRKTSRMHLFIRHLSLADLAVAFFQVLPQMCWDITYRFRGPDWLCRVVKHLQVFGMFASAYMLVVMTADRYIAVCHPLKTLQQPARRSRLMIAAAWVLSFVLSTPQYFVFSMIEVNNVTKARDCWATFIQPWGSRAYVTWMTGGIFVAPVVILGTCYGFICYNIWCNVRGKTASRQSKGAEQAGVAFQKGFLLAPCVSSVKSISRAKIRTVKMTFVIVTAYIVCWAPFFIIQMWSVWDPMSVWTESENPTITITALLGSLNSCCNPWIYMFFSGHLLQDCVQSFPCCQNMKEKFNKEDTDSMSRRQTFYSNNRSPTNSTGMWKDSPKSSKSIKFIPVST
On to `C=C1/C(=C\C=C2/CCC[C@]3(C)[C@@H]([C@H](C)CCCC(C)C)CC[C@@H]23)C[C@@H](O)C[C@@H]1O` [ALFACALCIDOL], for which the IC50 result is listed as “Not Active”.
For the compound `CCCCCC[C@H]1C(=O)O[C@H](C)[C@H](NC(=O)c2cccc(NC=O)c2O)C(=O)O[C@@H](C)[C@@H]1OC(=O)CC(C)C` [ANTIMYCIN A], the IC50 entry is on record as “Not Active”.
On to `C[C@@H]1CC[C@H]2[C@@H](C)C(=O)O[C@@H]3O[C@@]4(C)CC[C@@H]1[C@]32OO4` [ARTEMISININ], for which the IC50 entry was “Not Active”.
For the compound `CO[C@H]1[C@@H](O)[C@H](N)[C@@H](O[C@H]2O[C@H]([C@H](C)N)CC[C@H]2N)[C@H](O)[C@@H]1N(C)C(=O)CN` [ASTROMICIN], the IC50 entry is “Not Active”.

The next experiment has as its target T1, Caspase-1 (Homo sapiens, UniProt P29466).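 Also: Caspase-1 enzyme inhibition assay with a peptide substrate; in other assays of this panel Not Active means under 50% inhibition at 10 µM.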
T1 sequence (P29466 whole entry): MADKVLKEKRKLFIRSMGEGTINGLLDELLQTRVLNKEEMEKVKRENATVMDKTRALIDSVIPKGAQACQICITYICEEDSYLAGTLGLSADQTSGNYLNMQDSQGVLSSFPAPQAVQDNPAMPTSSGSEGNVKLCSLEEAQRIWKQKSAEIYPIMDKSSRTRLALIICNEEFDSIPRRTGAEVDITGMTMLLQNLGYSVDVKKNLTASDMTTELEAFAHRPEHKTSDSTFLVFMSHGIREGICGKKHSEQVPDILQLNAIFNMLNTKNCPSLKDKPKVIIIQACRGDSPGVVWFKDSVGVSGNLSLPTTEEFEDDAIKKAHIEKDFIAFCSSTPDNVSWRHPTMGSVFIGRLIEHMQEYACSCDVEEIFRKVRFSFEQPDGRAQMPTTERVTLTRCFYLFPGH
The arrangement: species or system Escherichia coli.
Details: not given
Consider `C=C1/C(=C\C=C2/CCC[C@]3(C)[C@@H]([C@H](C)CCCC(C)C)CC[C@@H]23)C[C@@H](O)C[C@@H]1O` [ALFACALCIDOL], for which the IC50 entry is given as “Not Active”.
Consider `CCCCCC[C@H]1C(=O)O[C@H](C)[C@H](NC(=O)c2cccc(NC=O)c2O)C(=O)O[C@@H](C)[C@@H]1OC(=O)CC(C)C` [ANTIMYCIN A], for which the IC50 result is “Not Active”.
For the compound `C[C@@H]1CC[C@H]2[C@@H](C)C(=O)O[C@@H]3O[C@@]4(C)CC[C@@H]1[C@]32OO4` [ARTEMISININ], the IC50 entry is given as “Not Active”.
For the compound `CO[C@H]1[C@@H](O)[C@H](N)[C@@H](O[C@H]2O[C@H]([C@H](C)N)CC[C@H]2N)[C@H](O)[C@@H]1N(C)C(=O)CN` [ASTROMICIN], the IC50 result was “Not Active”.

Tested on in the next experiment: not listed separately
Description: DRUGMATRIX: beta-Lactamase enzyme inhibition (substrate: Nitrocefin). Conditions: Not Active = under 50% inhibition at 10 µM. The arrangement: species or system Bacillus cereus.
For `C=C1/C(=C\C=C2/CCC[C@]3(C)[C@@H]([C@H](C)CCCC(C)C)CC[C@@H]23)C[C@@H](O)C[C@@H]1O` [ALFACALCIDOL], the IC50 entry was “Not Active” and the Ki entry is “Not Active”.
In the case of `CCCCCC[C@H]1C(=O)O[C@H](C)[C@H](NC(=O)c2cccc(NC=O)c2O)C(=O)O[C@@H](C)[C@@H]1OC(=O)CC(C)C` [ANTIMYCIN A], the IC50 entry is given as “Not Active” and the Ki entry was “Not Active”.
Regarding `C[C@@H]1CC[C@H]2[C@@H](C)C(=O)O[C@@H]3O[C@@]4(C)CC[C@@H]1[C@]32OO4` [ARTEMISININ], the IC50 result was “Not Active” and the Ki result is “Not Active”.
`CO[C@H]1[C@@H](O)[C@H](N)[C@@H](O[C@H]2O[C@H]([C@H](C)N)CC[C@H]2N)[C@H](O)[C@@H]1N(C)C(=O)CN` [ASTROMICIN]: the IC50 result was “Not Active” and the Ki entry is “Not Active”.

The next experiment addresses T2, Adenosine receptor A1 (Homo sapiens, UniProt P30542).
T2 sequence (P30542 whole entry): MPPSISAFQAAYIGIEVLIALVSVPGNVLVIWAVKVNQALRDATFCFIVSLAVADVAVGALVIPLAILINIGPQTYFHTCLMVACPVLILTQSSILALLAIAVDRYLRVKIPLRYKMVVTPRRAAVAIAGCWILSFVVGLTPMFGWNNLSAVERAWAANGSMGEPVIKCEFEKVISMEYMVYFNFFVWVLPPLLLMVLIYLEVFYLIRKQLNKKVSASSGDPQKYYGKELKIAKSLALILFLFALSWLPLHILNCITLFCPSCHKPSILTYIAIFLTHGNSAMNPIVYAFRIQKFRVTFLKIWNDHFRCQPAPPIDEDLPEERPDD
The class given is cell membranes, CHO, Membrane. Conditions: cho.
For the compound `C=C1/C(=C\C=C2/CCC[C@]3(C)[C@@H]([C@H](C)CCCC(C)C)CC[C@@H]23)C[C@@H](O)C[C@@H]1O` [ALFACALCIDOL], the IC50 result is “Not Active”.
Regarding `CCCCCC[C@H]1C(=O)O[C@H](C)[C@H](NC(=O)c2cccc(NC=O)c2O)C(=O)O[C@@H](C)[C@@H]1OC(=O)CC(C)C` [ANTIMYCIN A], the IC50 result was “Not Active”.
Same read-out and setting: the result for `C[C@@H]1CC[C@H]2[C@@H](C)C(=O)O[C@@H]3O[C@@]4(C)CC[C@@H]1[C@]32OO4` [ARTEMISININ] reads “Not Active”; that for `CO[C@H]1[C@@H](O)[C@H](N)[C@@H](O[C@H]2O[C@H]([C@H](C)N)CC[C@H]2N)[C@H](O)[C@@H]1N(C)C(=O)CN` [ASTROMICIN], “Not Active”.

The next experiment has as its target T3, Glucocorticoid receptor (Homo sapiens, UniProt P04150). Also: in other assays of this panel Not Active means under 50% inhibition at 10 µM.
T3 sequence (P04150 whole entry): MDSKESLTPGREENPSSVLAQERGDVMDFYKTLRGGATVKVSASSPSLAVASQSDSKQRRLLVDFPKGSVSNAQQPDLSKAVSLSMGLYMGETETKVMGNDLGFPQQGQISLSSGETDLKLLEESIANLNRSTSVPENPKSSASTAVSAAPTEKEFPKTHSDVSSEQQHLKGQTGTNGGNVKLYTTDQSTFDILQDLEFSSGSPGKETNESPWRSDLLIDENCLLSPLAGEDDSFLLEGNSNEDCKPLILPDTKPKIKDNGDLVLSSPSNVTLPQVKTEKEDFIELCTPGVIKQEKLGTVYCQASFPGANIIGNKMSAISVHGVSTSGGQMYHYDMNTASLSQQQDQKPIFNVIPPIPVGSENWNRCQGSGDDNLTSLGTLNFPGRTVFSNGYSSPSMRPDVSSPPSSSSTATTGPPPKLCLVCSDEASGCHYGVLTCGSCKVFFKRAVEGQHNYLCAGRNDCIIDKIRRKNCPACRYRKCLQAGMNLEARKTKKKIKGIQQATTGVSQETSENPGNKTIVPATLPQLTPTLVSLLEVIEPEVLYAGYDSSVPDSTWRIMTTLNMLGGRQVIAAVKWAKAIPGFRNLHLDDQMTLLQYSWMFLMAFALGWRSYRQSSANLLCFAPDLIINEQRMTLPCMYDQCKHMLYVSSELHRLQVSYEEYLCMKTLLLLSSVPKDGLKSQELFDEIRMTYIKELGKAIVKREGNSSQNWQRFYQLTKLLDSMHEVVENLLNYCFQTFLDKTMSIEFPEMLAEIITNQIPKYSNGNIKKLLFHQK
Conditions: hela s3.
`C=C1/C(=C\C=C2/CCC[C@]3(C)[C@@H]([C@H](C)CCCC(C)C)CC[C@@H]23)C[C@@H](O)C[C@@H]1O` [ALFACALCIDOL]: the IC50 result is reported as “Not Active”.
Regarding `CCCCCC[C@H]1C(=O)O[C@H](C)[C@H](NC(=O)c2cccc(NC=O)c2O)C(=O)O[C@@H](C)[C@@H]1OC(=O)CC(C)C` [ANTIMYCIN A], the IC50 result is “Not Active”.
For the compound `C[C@@H]1CC[C@H]2[C@@H](C)C(=O)O[C@@H]3O[C@@]4(C)CC[C@@H]1[C@]32OO4` [ARTEMISININ], the IC50 entry is listed as “Not Active”.
Still for that read-out and setting: the result for `CO[C@H]1[C@@H](O)[C@H](N)[C@@H](O[C@H]2O[C@H]([C@H](C)N)CC[C@H]2N)[C@H](O)[C@@H]1N(C)C(=O)CN` [ASTROMICIN] reads “Not Active”.

Another experiment concerns the target T4, Cholecystokinin receptor type A (Homo sapiens, UniProt P32238). Also: in other assays of this panel Not Active means under 50% inhibition at 10 µM.
T4 sequence (P32238 whole entry): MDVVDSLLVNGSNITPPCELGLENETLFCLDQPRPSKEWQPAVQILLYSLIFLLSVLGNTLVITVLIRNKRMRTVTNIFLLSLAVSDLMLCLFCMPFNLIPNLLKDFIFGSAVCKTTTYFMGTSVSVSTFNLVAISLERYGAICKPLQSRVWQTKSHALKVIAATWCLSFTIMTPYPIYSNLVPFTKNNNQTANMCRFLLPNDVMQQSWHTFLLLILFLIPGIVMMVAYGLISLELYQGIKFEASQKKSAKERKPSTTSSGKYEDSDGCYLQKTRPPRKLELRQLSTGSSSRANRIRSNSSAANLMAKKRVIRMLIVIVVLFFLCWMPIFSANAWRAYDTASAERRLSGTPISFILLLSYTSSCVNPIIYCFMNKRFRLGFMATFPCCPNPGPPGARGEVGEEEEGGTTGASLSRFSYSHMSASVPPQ
Type of experiment: cell membranes, Membrane. The note with it: 1321-n1.
`C=C1/C(=C\C=C2/CCC[C@]3(C)[C@@H]([C@H](C)CCCC(C)C)CC[C@@H]23)C[C@@H](O)C[C@@H]1O` [ALFACALCIDOL]: the IC50 result is “Not Active”.
With `CCCCCC[C@H]1C(=O)O[C@H](C)[C@H](NC(=O)c2cccc(NC=O)c2O)C(=O)O[C@@H](C)[C@@H]1OC(=O)CC(C)C` [ANTIMYCIN A], the IC50 result is “Not Active”.
On the same count and under the same terms, the result for `C[C@@H]1CC[C@H]2[C@@H](C)C(=O)O[C@@H]3O[C@@]4(C)CC[C@@H]1[C@]32OO4` [ARTEMISININ] reads “Not Active”.
`CO[C@H]1[C@@H](O)[C@H](N)[C@@H](O[C@H]2O[C@H]([C@H](C)N)CC[C@H]2N)[C@H](O)[C@@H]1N(C)C(=O)CN` [ASTROMICIN]: the IC50 entry is “Not Active”.

Tested on in the next experiment: not listed separately
Description: DRUGMATRIX: Phosphodiesterase PDE4 enzyme inhibition (substrate: [3H]cAMP + cAMP). Conditions: u-937; Not Active = under 50% inhibition at 10 µM.
As for `C=C1/C(=C\C=C2/CCC[C@]3(C)[C@@H]([C@H](C)CCCC(C)C)CC[C@@H]23)C[C@@H](O)C[C@@H]1O` [ALFACALCIDOL], the IC50 entry is on record as “Not Active” and the Ki result is listed as “Not Active”.
As for `CCCCCC[C@H]1C(=O)O[C@H](C)[C@H](NC(=O)c2cccc(NC=O)c2O)C(=O)O[C@@H](C)[C@@H]1OC(=O)CC(C)C` [ANTIMYCIN A], the IC50 entry was “Not Active” and the Ki result is “Not Active”.
As to `C[C@@H]1CC[C@H]2[C@@H](C)C(=O)O[C@@H]3O[C@@]4(C)CC[C@@H]1[C@]32OO4` [ARTEMISININ], the IC50 entry was “Not Active” and the Ki result is recorded as “Not Active”.
For the compound `CO[C@H]1[C@@H](O)[C@H](N)[C@@H](O[C@H]2O[C@H]([C@H](C)N)CC[C@H]2N)[C@H](O)[C@@H]1N(C)C(=O)CN` [ASTROMICIN], the IC50 entry is recorded as “Not Active” and the Ki entry is “Not Active”.

The values are drawn from ChEMBL document CHEMBL1909046, “DrugMatrix in vitro pharmacology data”.
